In experiment [1] the test system is 80S14 (p21-deficient) cells. In words: Cytotoxicity assay using isogenic cell lines: IC50 in 80S14 (p21-deficient) cells, SRB. The experiment is classed as cell-based, human. The gist of the method:
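IC50 is the concentration halving proliferation relative to untreated controls, read from SRB absorbance (560 nm) after TCA fixation. Test agent dilutions (5 pM–50 μM or 170 pg/ml–10 μg/ml) were left on p21-deficient 80S14 cells (12,000/well, pre-incubated overnight) for 5 days at 37 °C.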

A further experiment deals with LoVo Colon cell line. In words: Cytotoxicity assay using LoVo colon cell line, SRB. The class given is cell-based. The conditions noted are these: read-out: Inhibition of LoVo. The method, then: Cytotoxicity Assay Using LoVo Colon Cell Line: • 1. LoVo Colon cell lines were cultured in RPMI 1640 medium (Gibco/Invitrogen Life Sciences) supplemented with 10% fetal bovine serum (FBS, Gibco) and 50 μg/ml entamicin (Gibco). Cells were maintained at 37° C. under 7% CO2. • 2. Cells were seeded in 96-well microtiter plates (Corning/Costar) in a volume of 0.15 ml of growth medium (4000 cells/well). Plates were incubated at 37° C. overnight (18-24 hours). • 3. Serial dilutions of the test agent were added to each well. Dilutions were prepared in growth medium. One of two dose ranges was used: 5 pM to 20 μM or 170 pg/ml to 10 μg/ml. Cells were incubated with the test compounds for 4 days at 37° C. • 4. Surviving cells were processed using the SRB asay, as described above.
5. The drug concentration that inhibits cell proliferation by 50% relative to untreated controls (IC50) was determined from cytotoxicity curves using the LSW Toolbox graphing application.

Where [2] appears, read: Homo sapiens, 120 h, 80S14 (p21-deficient) cells, 5 days, SRB, class symbols, read-out: IC50 for 80S14.
Where [3] appears, read: Homo sapiens, 96 h, Cellular activity in LoVo cell, 4 days incubation, SRB.
Where [4] appears, read: Homo sapiens, 120 h, 80S14 p21-deficient cells, 5 days incubation, SRB, read-out: IC50 for 80SI4.
The mark [5] stands for this setting: Homo sapiens, 96 h, LoVo colon cells, 4 days incubation, SRB.
Where [6] appears, read: Homo sapiens, 80S14, 120 h, read-out: IC50 for 80SI4 (uM).

Structures are written as SMILES. Like-named read-outs stand apart in the source and are kept apart here.

As for `CC(C)CC(=O)Nc1cccc(-c2ccnc3c(-c4cccc(CN5CCOCC5)c4)cnn23)c1` [Example 488, 3-Methyl-N-(3-{3-[3-(morpholin-4-ylmethyl)phenyl]pyrazolo[1,5-a]pyrimidin-7-yl}phenyl)butanamide], the IC50 was 10 to 50 µM in experiment [1] (setting [2]) and 1000 to 20000 nM with LoVo Colon cell line (setting [3]).

In the case of `O=C(CC1CC1)Nc1cccc(-c2ccnc3c(C(=O)c4cccs4)cnn23)c1` [Example 72, 2-cyclopropyl-N-{3-[3-(thien-2-ylcarbonyl)pyrazolo[1,5-a]pyrimidin-7-yl]phenyl}acetamide], the IC50 in experiment [1] (setting [4]) was < 1 µM; in the experiment with LoVo Colon cell line (setting [5]), 100 to 1000 nM.

In the case of `CCOc1cccc(-c2cnn3c(-c4cccc(NC(=O)CC(C)C)c4)ccnc23)c1` [Example 479, N-{3-[3-(3-Ethoxyphenyl)pyrazolo[1,5-a]pyrimidin-7-yl]phenyl}-3-methylbutanamide], the IC50 in experiment [1] (setting [2]) was in the range of 10 to 50 µM; in the experiment with LoVo Colon cell line (setting [3]), 1000 to 20000 nM.

Take `CC(C)C(=O)Nc1cccc(-c2ccnc3c(C(=O)c4cccs4)cnn23)c1` [Example 273, 2-Methyl-N-{3-[3-(2-thienylcarbonyl)pyrazolo[1,5-a]pyrimidin-7-yl]phenyl}propanamide]: the IC50 in experiment [1] (Homo sapiens, 80S14, 120 h, read-out: IC50 for 80S14 (uM)) is < 1 µM; with LoVo Colon cell line (Homo sapiens, LoVo, 96 h), 100 to 1000 nM.

As to `O=C(Nc1cccc(-c2ccnc3c(C(=O)c4cccs4)cnn23)c1)c1ccccc1` [Example 284, N-{3-[3-(2-Thienylcarbonyl)pyrazolo[1,5-a]pyrimidin-7-yl]phenyl}benzamide], the IC50 was < 1 µM in experiment [1] (setting [2]) and < 100 nM in the experiment with LoVo Colon cell line (setting [3]).

`O=C(c1cccs1)c1cnn2c(-c3cccc(NC/C=C/c4ccc([N+](=O)[O-])cc4)c3)ccnc12` [Example 398, [7-(3-{[(2E)-3-(4-Nitrophenyl)prop-2-enyl]amino}phenyl)pyrazolo[1,5-a]pyrimidin-3-yl] (thien-2-yl)methanone]: the IC50 in experiment [1] (setting [2]) fell in the range of 10 to 50 µM; in the experiment with LoVo Colon cell line (setting [3]), 1000 to 20000 nM.

For `CCOC(=O)Nc1cccc(-c2ccnc3c(C(=O)c4cccs4)cnn23)c1` [Example 25, ethyl 3-[3-(thien-2-ylcarbonyl)pyrazolo[1,5-a]pyrimidin-7-yl]phenylcarbamate], the IC50 in experiment [1] (setting [6]) is < 1 µM; in the experiment on LoVo Colon cell line (Homo sapiens, LoVo, 96 h), < 100 nM.

Regarding `CC(C)(C)CNC(=O)Nc1cccc(-c2ccnc3c(C(=O)c4cccs4)cnn23)c1` [Example 164, N-neopentyl-N′-{3-[3-(thien-2-ylcarbonyl)pyrazolo[1,5-a]pyrimidin-7-yl]phenyl}urea], the IC50 in experiment [1] (setting [4]) is < 1 µM; with LoVo Colon cell line (setting [5]), < 100 nM.

For `O=C(c1cccs1)c1cnn2c(-c3cccc(-c4nnn(CCN5CCCC5)n4)c3)ccnc12` [Example 511, (7-{3-[2-(2-Pyrrolidin-1-ylethyl)-2H-tetraazol-5-yl]phenyl}pyrazolo[1,5-a]pyrimidin-3-yl)(thien-2-yl)methanone], the values for the IC50 (in experiment [1] (setting [2]); with LoVo Colon cell line (setting [3])) were < 1 µM and 100 to 1000 nM, respectively.

On to `O=C(CC1CCCCC1)Nc1cccc(-c2ccnc3c(C(=O)c4cccs4)cnn23)c1` [Example 74, 2-cyclohexyl-N-{3-[3-(thien-2-ylcarbonyl)pyrazolo[1,5-a]pyrimidin-7-yl]phenyl}acetamide], for which the IC50 in experiment [1] (setting [4]) was < 1 µM; in the experiment with LoVo Colon cell line (setting [5]), < 100 nM.

On to `O=C(Nc1cccc(-c2ccnc3c(C(=O)c4cccs4)cnn23)c1)c1ccccc1Cl` [Example 95, 2-chloro-N-{3-[3-(thien-2-ylcarbonyl)pyrazolo[1,5-a]pyrimidin-7-yl]phenyl}benzamide], for which the figures for the IC50 (in experiment [1] (setting [4]); in the experiment on LoVo Colon cell line (setting [5])) were < 1 µM and < 100 nM, respectively.

On to `Cc1cc(C)cc(-c2cnn3c(-c4cccc(-c5nnn(CCN6CCOCC6)n5)c4)ccnc23)c1` [Example 493, 3-(3,5-Dimethylphenyl)-7-{3-[2-(2-morpholin-4-ylethyl)72H-tetraazol-5-yl]phenyl}pyrazolo[1,5-a]pyrimidine], for which the IC50 in experiment [1] (80S14 (p21-deficient) cells, 5 days, SRB, class symbols, read-out: IC50 for 80S14) is 1 to 10 µM; in the experiment on LoVo Colon cell line (Cellular activity in LoVo cell, 4 days incubation, SRB), 100 to 1000 nM.

Consider `C=CCOC(=O)Nc1cccc(-c2ccnc3c(C(=O)c4cccs4)cnn23)c1` [Example 14, allyl 3-[3-(thien-2-ylcarbonyl)pyrazolo[1,5-a]pyrimidin-7-yl]phenylcarbamate], for which the IC50 is < 1 µM in experiment [1] (setting [6]) and < 100 nM with LoVo Colon cell line (Homo sapiens, LoVo, 96 h).

As for `O=C(c1cccs1)c1cnn2c(-c3cccc(-c4ccn(Cc5ccccn5)n4)c3)ccnc12` [Example 517, (7-{3-[1-(Pyridin-2-ylmethyl)-1H-pyrazol-3-yl]phenyl}pyrazolo[1,5-a]pyrimidin-3-yl)(thien-2-yl)methanone], the IC50 in experiment [1] (setting [2]) was < 1 µM; in the experiment with LoVo Colon cell line (setting [3]) it was 100 to 1000 nM.

In the case of `CC(C)CC(=O)Nc1cccc(-c2ccnc3c(-c4cccc(Cl)c4)cnn23)c1` [Example 471, N-{3-[3-(3-Chlorophenyl)pyrazolo[1,5-a]pyrimidin-7-yl]phenyl}-3-methylbutanamide], the values for the IC50 (in experiment [1] (setting [2]); in the experiment on LoVo Colon cell line (setting [3])) were 10 to 50 µM and 1000 to 20000 nM, respectively.

Regarding `O=C(c1cccs1)c1cnn2c(-c3cccc(N(C(=O)c4c(Cl)cccc4Cl)C(=O)c4c(Cl)cccc4Cl)c3)ccnc12` [Example 391, 2,6-Dichloro-N-(2,6-dichlorobenzoyl)-N-{3-[3-(thien-2-ylcarbonyl)pyrazolo[1,5-a]pyrimidin-7-yl]phenyl}benzamide], the IC50 in experiment [1] (setting [2]) is 10 to 50 µM; with LoVo Colon cell line (setting [3]), 1000 to 20000 nM.

`Cc1cc(C)cc(-c2cnn3c(-c4cccc(C#N)c4)ccnc23)c1` [Example 490, 3-[3-(3,5-Dimethylphenyl)pyrazolo[1,5-a]pyrimidin-7-yl]benzonitrile]: the IC50 in experiment [1] (setting [2]) lay within 10 to 50 µM; in the experiment on LoVo Colon cell line (setting [3]), 1000 to 20000 nM.

For `O=C(c1cccs1)c1cnn2c(-c3cccc(NCc4ccccc4Cl)c3)ccnc12` [Example 368, (7-{3-[(2-Chlorobenzyl)amino]phenyl}pyrazolo[1,5-a]pyrimidin-3-yl)(thien-2-yl)methanone], the figures for the IC50 (in experiment [1] (setting [2]); with LoVo Colon cell line (setting [3])) were 1 to 10 µM and 100 to 1000 nM, respectively.

`CCCC(=O)Nc1cccc(-c2ccnc3c(C(=O)c4cccs4)cnn23)c1` [Example 148, N-{3-[3-(thien-2-ylcarbonyl)pyrazolo[1,5-a]pyrimidin-7-yl]phenyl}butanamide]: the IC50 is < 1 µM in experiment [1] (setting [6]) and < 100 nM in the experiment on LoVo Colon cell line (Homo sapiens, LoVo, 96 h).

Regarding `O=C(Nc1cccc(-c2ccnc3c(C(=O)c4cccs4)cnn23)c1)NC1CC1` [Example 169, N-cyclopropyl-N′-{3-[3-(thien-2-ylcarbonyl)pyrazolo[1,5-a]pyrimidin-7-yl]phenyl}urea], the figures for the IC50 (in experiment [1] (setting [4]); with LoVo Colon cell line (setting [5])) were 1 to 10 µM and 100 to 1000 nM, respectively.

Turning to `CC(C)NC(=O)Nc1ccc(-c2ccnc3c(C(=O)c4cccs4)cnn23)s1` [Example 329, N-Isopropyl-N′-{5-[3-(thien-2-ylcarbonyl)pyrazolo[1,5-a]pyrimidin-7-yl]thien-2-yl}urea], the IC50 is 1 to 10 µM in experiment [1] (setting [2]) and 100 to 1000 nM in the experiment with LoVo Colon cell line (setting [3]).

As to `O=C(c1cccs1)c1cnn2c(-c3cccc(NCCc4ccccc4)c3)ccnc12` [Example 362, (7-{3-[(2-Phenylethyl)amino]phenyl}pyrazolo[1,5-a]pyrimidin-3-yl)(thien-2-yl)methanone], the IC50 in experiment [1] (setting [2]) is 10 to 50 µM; with LoVo Colon cell line (setting [3]) it was 1000 to 20000 nM.

Regarding `COc1cccc(-c2cnn3c(-c4cccc(NC(=O)CC(C)C)c4)ccnc23)c1` [Example 478, N-{3-[3-(3-Methoxyphenyl)pyrazolo[1,5-a]pyrimidin-7-yl]phenyl}-3-methylbutanamide], the IC50 in experiment [1] (setting [2]) was 10 to 50 µM; with LoVo Colon cell line (setting [3]), 1000 to 20000 nM.

(Values after US20060063784A1, “Method of using substituted pyrazolo [1,5-a] pyrimidines” (priority 2004, published 2006).)
